# From ChEMBL document CHEMBL1201862, “PubChem BioAssay data set” (2004)
# Where “and” joins values, the source holds several entries; their conditions need not be identical. Equal values may be shown once. Calls of active or inactive are those of the source.
# Assays:
# Troponin, cardiac muscle = Troponin, cardiac muscle (Homo sapiens, UniProt P19429+P45379+P63316); assay: Fluorescence-based biochemical high throughput dose response assay for activators of the calcium sensitivity of cardiac Regulated Thin Filaments (RTF). [Related pubchem assays (depositor defined):AID493008, AID493018, AID504382, AID504383]; assay type: protein-complex assay
# Vero = assay: cells; assay type: functional; details: Chlorocebus sabaeus
# [1] = HepG2 cell cytotoxicity, dose response, cytotoxicity control for non-replicating M. tuberculosis project (AID 489018); assay type: functional; details: Mycobacterium tuberculosis
# [2] = target: T1, Short transient receptor potential channel 4 (Mus musculus, UniProt Q9QUQ5); assay: calcium entry via TRPC4 opening agents – cell-based, HEK293 TRPC4/mu-opioid, Fluo-4 calcium, dose response (AID 434937); assay type: functional
# T1 sequence (Q9QUQ5 whole entry): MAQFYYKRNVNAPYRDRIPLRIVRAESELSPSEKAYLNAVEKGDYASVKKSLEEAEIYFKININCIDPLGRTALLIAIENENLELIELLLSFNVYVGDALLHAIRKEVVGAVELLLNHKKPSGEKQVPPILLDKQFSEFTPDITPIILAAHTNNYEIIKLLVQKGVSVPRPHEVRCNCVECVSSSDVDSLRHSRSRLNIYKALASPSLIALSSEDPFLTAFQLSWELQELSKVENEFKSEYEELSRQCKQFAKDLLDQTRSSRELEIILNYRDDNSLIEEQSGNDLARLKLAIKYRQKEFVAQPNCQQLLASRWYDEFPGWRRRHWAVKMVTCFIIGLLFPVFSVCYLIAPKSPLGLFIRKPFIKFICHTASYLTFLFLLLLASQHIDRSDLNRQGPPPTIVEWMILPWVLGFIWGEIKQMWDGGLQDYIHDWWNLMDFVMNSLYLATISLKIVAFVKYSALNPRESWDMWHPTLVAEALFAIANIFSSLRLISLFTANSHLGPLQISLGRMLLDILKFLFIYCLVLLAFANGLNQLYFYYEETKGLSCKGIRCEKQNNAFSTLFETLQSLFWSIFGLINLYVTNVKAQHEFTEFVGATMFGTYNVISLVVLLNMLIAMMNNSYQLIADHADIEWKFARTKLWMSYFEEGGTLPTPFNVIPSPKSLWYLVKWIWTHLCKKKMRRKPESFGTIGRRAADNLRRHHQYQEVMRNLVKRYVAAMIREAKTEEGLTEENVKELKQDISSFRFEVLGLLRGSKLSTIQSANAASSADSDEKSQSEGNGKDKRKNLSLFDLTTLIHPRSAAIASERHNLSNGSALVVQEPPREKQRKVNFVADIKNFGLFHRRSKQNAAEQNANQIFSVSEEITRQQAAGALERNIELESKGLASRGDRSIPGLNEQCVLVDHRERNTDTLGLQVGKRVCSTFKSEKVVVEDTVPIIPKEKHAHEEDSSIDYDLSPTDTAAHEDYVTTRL
# Streptococcus = assay: GAS UMAA2166 growth inhibition – luminescence, BacTiterGlo, counter-screen for streptokinase expression inhibitor project, dose response (AID 1915); assay type: functional, organism-based;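 further: potency for reduction of bacterial viability or growth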
# [3] = Vero E6 cell cytotoxicity, dose response, cytotoxicity control for non-replicating M. tuberculosis project, secondary assay (AID 492998); assay type: functional, VeroE6; details: Vero C1008
# [4] = target: T2, Corticotropin-releasing factor receptor 2/Corticotropin-releasing factor-binding protein (Homo sapiens, UniProt P24387+Q13324); assay: activators of CRF receptor 2 with binding protein – uHTS hits, confirmation (AID 602473); assay type: functional; details: read-out: EC50_Mean
# T2 sequence (Q13324 whole entry): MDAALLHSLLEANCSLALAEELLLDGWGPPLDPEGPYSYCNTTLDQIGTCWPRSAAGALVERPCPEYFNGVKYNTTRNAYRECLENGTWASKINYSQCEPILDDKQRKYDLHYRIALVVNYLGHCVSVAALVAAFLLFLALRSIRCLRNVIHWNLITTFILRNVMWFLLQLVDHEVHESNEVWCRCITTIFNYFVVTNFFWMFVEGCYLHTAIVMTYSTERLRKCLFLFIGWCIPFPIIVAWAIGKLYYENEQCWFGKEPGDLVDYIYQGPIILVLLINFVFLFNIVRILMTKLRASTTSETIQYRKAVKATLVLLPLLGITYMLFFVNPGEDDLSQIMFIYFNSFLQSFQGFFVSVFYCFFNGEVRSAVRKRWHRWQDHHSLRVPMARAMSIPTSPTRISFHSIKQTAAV
# T2 sequence (P24387 whole entry): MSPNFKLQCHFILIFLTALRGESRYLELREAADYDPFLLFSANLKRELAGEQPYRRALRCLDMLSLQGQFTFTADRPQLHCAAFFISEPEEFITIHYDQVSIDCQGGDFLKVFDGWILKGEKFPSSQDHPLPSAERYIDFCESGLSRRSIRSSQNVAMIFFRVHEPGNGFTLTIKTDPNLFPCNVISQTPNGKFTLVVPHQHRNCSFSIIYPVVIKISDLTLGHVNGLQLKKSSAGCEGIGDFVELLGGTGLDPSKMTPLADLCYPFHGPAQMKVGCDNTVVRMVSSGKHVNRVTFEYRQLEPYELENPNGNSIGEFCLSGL
# [5] = THP-1 cell cytotoxicity, dose response, cytotoxicity control for non-replicating M. tuberculosis project (AID 489025); assay type: functional
# cells = assay type: functional
# [6] = tested on: Streptococcus sp. 'group A'; assay: Streptococcus pyogenes SK(-)GAS viability under kanamycin – luminescence, BacTiterGlo, confirmation, counter-screen for streptokinase expression inhibitor project, dose response (AID 1900); assay type: functional, organism-based
# Streptokinase A = target: T3, Streptokinase A (Streptococcus pyogenes serotype M1, UniProt P10520); assay: viability-normalized secreted streptokinase activity reduction – plasminogen activation absorbance, OD405, dose response (AID 1914); assay type: functional, Streptococcus pyogenes M1 GAS;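 further: secreted streptokinase activity via plasminogen activation per viability signal from cell pellet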
# T3 sequence (P10520 whole entry): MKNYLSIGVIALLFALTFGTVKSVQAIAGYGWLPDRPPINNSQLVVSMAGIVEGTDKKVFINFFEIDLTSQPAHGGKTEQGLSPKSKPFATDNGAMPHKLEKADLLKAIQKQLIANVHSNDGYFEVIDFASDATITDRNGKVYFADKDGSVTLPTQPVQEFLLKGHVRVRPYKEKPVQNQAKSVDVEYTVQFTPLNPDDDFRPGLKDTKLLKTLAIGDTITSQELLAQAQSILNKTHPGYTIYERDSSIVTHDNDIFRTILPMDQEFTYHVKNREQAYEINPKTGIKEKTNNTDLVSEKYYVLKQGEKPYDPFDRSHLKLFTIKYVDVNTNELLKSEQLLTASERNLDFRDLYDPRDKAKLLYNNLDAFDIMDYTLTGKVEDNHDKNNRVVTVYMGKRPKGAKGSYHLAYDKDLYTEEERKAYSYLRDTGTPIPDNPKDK
# [7] = target: Beta-2 adrenergic receptor (Homo sapiens, UniProt P07550); assay: ADRB2 activation measured by internalization – cell-based, FAP fluorogen, flow cytometry, cherry pick 1, dose response (AID 588763); assay type: functional
# Chain of Beta-2 adrenergic receptor (P07550 whole entry): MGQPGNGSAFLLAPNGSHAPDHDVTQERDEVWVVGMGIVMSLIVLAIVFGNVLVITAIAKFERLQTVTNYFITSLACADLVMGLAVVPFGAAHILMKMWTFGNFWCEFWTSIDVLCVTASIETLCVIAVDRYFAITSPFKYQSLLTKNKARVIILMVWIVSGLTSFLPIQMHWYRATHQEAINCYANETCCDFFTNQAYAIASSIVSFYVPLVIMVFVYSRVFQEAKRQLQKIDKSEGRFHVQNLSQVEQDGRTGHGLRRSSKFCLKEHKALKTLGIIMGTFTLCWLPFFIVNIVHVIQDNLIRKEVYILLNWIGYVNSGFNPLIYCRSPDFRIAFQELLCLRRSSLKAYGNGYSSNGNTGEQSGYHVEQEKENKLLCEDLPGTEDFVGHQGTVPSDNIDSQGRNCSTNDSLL
# [8] = target: Peroxisome proliferator-activated receptor gamma/Nuclear receptor coactivator 2 (Homo sapiens, UniProt P37231); assay: (§1) TR-FRET dose response biochemical High Throughput Screening assay for agonists of the steroid receptor coactivator 2 (SRC-2) recruitment by the peroxisome proliferator-activated receptor gamma (PPAR gamma): non-selective agonists. [Related pubchem assays: 1297, 1032 ]; assay type: functional
# [9] = target: Peroxisome proliferator-activated receptor gamma/Nuclear receptor coactivator 3 (Homo sapiens, UniProt P37231); assay: as §1, with “3 (SRC-3)” for “2 (SRC-2)”, “1301 (Confirmation screen.), 1048 (Primary screen.)]” for “1297, 1032 ]”; assay type: functional
# Chain of Peroxisome proliferator-activated receptor gamma/Nuclear receptor coactivator 3 (P37231 whole entry): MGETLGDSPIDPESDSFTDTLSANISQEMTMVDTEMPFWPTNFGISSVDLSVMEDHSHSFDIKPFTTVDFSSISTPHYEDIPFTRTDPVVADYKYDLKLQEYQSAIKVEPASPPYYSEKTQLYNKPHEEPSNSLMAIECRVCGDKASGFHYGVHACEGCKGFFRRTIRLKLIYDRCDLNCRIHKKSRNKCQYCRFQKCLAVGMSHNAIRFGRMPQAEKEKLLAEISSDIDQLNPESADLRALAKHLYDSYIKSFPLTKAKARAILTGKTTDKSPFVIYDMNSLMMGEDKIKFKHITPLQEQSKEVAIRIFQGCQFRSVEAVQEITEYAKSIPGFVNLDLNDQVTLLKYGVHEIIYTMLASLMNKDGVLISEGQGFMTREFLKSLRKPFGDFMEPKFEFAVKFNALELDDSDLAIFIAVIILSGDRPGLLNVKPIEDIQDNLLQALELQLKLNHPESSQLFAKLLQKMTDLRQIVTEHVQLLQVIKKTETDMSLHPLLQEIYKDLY
# Chain of Peroxisome proliferator-activated receptor gamma/Nuclear receptor coactivator 3 (Q9Y6Q9 whole entry, further chain): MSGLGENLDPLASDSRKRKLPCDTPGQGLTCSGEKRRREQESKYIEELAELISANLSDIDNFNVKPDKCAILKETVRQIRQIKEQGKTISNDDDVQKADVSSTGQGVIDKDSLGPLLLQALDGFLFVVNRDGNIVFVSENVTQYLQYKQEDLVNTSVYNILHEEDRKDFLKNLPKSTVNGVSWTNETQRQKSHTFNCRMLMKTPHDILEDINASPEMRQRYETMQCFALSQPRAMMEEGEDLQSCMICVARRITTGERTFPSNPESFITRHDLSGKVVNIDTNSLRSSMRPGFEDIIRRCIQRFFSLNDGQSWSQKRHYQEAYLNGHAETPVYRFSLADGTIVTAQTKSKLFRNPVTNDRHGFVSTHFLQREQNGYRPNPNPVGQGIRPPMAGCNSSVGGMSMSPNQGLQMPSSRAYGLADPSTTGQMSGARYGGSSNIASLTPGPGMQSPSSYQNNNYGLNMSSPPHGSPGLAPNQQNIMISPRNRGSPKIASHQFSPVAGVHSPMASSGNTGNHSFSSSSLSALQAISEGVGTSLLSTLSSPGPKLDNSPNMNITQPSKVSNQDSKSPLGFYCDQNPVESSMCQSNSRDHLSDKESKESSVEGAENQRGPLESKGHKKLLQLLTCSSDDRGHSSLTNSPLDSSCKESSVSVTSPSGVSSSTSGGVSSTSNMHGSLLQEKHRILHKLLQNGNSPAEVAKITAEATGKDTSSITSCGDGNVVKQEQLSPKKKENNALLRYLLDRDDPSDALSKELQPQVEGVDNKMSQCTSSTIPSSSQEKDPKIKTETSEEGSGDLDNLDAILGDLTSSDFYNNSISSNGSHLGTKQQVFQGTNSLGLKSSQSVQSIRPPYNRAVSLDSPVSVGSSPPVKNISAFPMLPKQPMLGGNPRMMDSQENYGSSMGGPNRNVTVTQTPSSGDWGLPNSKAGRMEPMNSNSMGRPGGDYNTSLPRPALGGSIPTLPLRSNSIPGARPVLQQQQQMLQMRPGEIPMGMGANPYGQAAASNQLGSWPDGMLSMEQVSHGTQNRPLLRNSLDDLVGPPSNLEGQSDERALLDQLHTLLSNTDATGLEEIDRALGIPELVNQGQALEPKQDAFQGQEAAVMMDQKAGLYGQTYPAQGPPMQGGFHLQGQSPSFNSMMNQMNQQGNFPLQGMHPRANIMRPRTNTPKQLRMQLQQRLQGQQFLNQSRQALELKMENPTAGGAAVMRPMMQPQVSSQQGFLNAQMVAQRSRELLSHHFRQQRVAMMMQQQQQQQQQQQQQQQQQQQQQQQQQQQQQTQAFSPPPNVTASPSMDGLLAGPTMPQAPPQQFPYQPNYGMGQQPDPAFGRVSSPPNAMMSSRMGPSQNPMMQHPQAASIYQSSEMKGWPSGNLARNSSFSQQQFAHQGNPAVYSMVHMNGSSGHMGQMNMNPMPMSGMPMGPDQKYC
# [10] = target: Peroxisome proliferator-activated receptor gamma/Nuclear receptor coactivator 1 (Homo sapiens, UniProt P37231); assay: as §1, with “1 (SRC-1)” for “2 (SRC-2)”, “assays (depositor defined):AID1300, AID1808, AID504735, AID631]” for “assays: 1297, 1032 ]”; assay type: protein assay
# [11] = target: T4, Kappa-type opioid receptor (Homo sapiens, UniProt P41145); assay: SAR analysis of small molecule antagonists of the kappa opioid receptor via a luminescent beta-arrestin assay - Set 3. [Related pubchem assays (depositor defined):AID1777, AID1778, AID1785, AID1786, AID1966, AID2133, AID2136, AID2285, AID2495]; assay type: functional
# T4 sequence (P41145 whole entry): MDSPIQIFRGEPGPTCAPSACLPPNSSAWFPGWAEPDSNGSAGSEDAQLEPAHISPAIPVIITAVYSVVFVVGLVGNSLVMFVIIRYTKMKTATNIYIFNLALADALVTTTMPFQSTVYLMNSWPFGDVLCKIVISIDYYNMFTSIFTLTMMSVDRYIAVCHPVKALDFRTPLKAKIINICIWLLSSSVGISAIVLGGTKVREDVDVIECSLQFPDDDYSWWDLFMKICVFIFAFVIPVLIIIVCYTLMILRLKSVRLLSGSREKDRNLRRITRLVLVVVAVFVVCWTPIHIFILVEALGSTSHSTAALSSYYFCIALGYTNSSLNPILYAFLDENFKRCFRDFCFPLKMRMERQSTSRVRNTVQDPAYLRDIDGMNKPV
# [12] = target: T4, Kappa-type opioid receptor; assay: SAR analysis of Antagonists of the Kappa Opioid Receptor (KOR) using an Image-Based Assay - Set 3. [Related pubchem assays (depositor defined):AID1777, AID1785]; assay type: functional
# [13] = target: Delta-type opioid receptor (Homo sapiens, UniProt P41143); assay: SAR Analysis of Antagonists of the DOR Receptor using an Image-Based Assay - Set 3. [Related pubchem assays (depositor defined):AID1777, AID1785]; assay type: functional;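 further: U2OS cells expressing DOR1 and beta-arrestin GFP stimulated with 100 nM SNC80; imaging of GFP-tagged beta-arrestin moving into spots after receptor activation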
# Chain of Delta-type opioid receptor (P41143 whole entry): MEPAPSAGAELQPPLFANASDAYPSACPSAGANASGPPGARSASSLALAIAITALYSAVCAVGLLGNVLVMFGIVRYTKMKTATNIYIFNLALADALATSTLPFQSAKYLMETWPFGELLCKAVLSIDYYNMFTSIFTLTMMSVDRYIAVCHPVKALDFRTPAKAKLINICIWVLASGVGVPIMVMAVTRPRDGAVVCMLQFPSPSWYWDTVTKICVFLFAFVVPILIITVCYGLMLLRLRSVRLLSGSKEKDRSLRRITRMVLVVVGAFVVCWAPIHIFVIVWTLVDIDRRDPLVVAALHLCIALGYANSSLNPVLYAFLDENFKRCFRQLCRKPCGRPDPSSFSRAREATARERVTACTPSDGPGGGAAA
# Mu-type opioid receptor = Mu-type opioid receptor (Homo sapiens, UniProt P35372); assay: SAR Analysis of Antagonists of the MOR Receptor using an Image-Based Assay - Set 3. [Related pubchem assays (depositor defined):AID1777, AID1785, AID1786, AID1966, AID2133, AID2136, AID2284, AID2285, AID2420]; assay type: functional
# Chain of Mu-type opioid receptor (P35372 whole entry): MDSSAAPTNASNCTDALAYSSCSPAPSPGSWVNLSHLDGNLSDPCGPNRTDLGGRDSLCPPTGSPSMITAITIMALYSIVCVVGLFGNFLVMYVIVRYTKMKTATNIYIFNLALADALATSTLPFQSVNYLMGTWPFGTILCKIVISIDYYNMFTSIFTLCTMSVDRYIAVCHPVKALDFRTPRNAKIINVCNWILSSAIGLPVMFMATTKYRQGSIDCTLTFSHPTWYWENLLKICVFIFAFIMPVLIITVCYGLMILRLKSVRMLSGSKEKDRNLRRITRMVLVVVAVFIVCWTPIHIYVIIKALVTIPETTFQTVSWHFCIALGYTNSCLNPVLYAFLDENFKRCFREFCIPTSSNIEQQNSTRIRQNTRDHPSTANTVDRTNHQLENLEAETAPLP
structure (smiles),measurement,setting,value
N=C1c2ccccc2CN1c1ccc(S(=O)(=O)N2CCCCC2)cc1,EC50,"Troponin, cardiac muscle",> 71.5 µM (inactive)
CC1(C(=O)NC(=S)NNC(=O)c2ccncc2)CCCCC1,CC50,Vero,> 25 µM (active)
same,CC50,[1],> 20 µM (active)
same,EC50,[2],11.9 µM (active)
same,EC50,Streptococcus,21.1 µM (active)
same,CC50,[3],13.4 µM (active)
same,EC50,[4],4.91 µM (active)
same,CC50,[5],9 µM (active)
same,IC50,cells,1.06 µM (active)
same,EC50,[6],1.59 µM (active)
same,EC50,Streptokinase A,> 150 µM (not active)
Cc1cccc(Nc2nnc(-c3ccc(C(=O)N4C[C@H]5C[C@H](C4)c4cccc(=O)n4C5)cc3)c3ccccc23)c1,EC50,[7],2.12 µM (active) and 1.66 µM (active)
CCn1c(=S)[nH]c2c(c1=O)C(C)(C)Cc1ccccc1-2,EC50,[8],> 79.4 µM (not active)
same,EC50,[9],> 79.4 µM (not active)
same,EC50,[10],> 79.4 µM (inactive)
CCOc1ccccc1C(=O)NCC(=O)OCc1csc(CC(=O)Nc2ccc(C)cc2)n1,EC50,[7],228 nM (active)
COc1ccc(S(=O)(=O)NCc2ccc(C(=O)NCCN(Cc3ccc(Br)cc3)C(C)C)cc2)cc1,IC50,[11],13.5 µM (inactive)
same,IC50,[12],1.38 µM (active)
same,IC50,[13],> 32 µM (inactive)
same,IC50,Mu-type opioid receptor,> 32 µM (inactive)
Cc1cccc(S(=O)(=O)NCc2ccc(C(=O)NCCN(Cc3ccccc3)C(C)C)cc2)c1,IC50,[11],2.32 µM (active)
same,IC50,[12],0.872 µM (active)
same,IC50,[13],> 32 µM (inactive)
same,IC50,Mu-type opioid receptor,7.99 µM (active)
